Where a name gives a salt, the structure may show the parent alone.
Key:
[1] = system: mice; assay: Tail-flick test in mice; assay type: in vivo, mouse (male Charles River, Swiss Strain); conditions: subcutaneous, 30 min pretreatment
Description: (B) Tail-flick test in mice
The methodology employed is based on that described by D'Amour and Smith, J. Pharmacol. Exp. Ther. 72. 74/1941.
Male Charles River mice (Swiss Strain), 22-34g body weight were used. Animals were allowed food and water ad libitum and were randomized into groups of 10 prior to experimentation.
Test compounds were dissolved in either distilled water or distilled water plus 0.1 M AMS and administered by the subcutaneous route in a final volume of 10 ml/Kg. Control animals received 10 ml/kg of the appropriate vehicle alone. Following a pretreatment period of 30 min., the mice were again placed under the heat source and the reaction tine re-determined.
Percentage quantal protection was determined as the number of mice in which the reaction time was doubled compared to pretreatment values, expressed as a percentage of the total number of mice in the group.

[2] = system: mice; assay: P-phenylquinone-induced abdominal writhing test in mice; assay type: in vivo, mouse (male Charles River, Swiss Strain); conditions: Mus musculus, sc; subcutaneous, 20 min pretreatment, p-phenylquinone 2 mg/Kg i.p.
Description: (A) P-phenylquinone-induced abdominal writing test in mice
The methodology employed is based on that described by Sigmund et al, Proc. Soc. Exptl. Biol. 95, 729/1957, modified by Milne and Twomey, Agents and Actions, 10, 31/1980.
Male Charles River mice (Swiss Strain), 25-36g body weight, were used. Animals were allowed food and water ad libitum and were randomized into groups of 10 prior to experimentation. Test compounds were dissolved in either distilled water or distilled water plus 0.1 M AMS, and administered by the subcutaneous route in a final volume of 10 ml/Kg. Control animals received 10 ml/Kg of the appropriate vehicle alone. Following a pretreatment period of 20 min., mice were injected intraperitoneally with p-phenylquinone, 2 mg/Kg at 37° C. in a final volume of […]. […] During this period the number of abdominal writhing responses per animal were recorded where writhing consists of an intermittent contraction of the abdomen associated with hind leg extension.
The degree of antinociceptive protection afforded by the test compound was determined as the mean number of writhing responses observed in the treated group (T) expressed as a percentage of the mean number of writhing responses in the control group (C) according to the following formula:
[1-(T/C]×100%=% graded protection

[3] = biological target: T1, Kappa opiate receptor (brain) (Cavia porcellus, UniProt P41144); assay: Opiate receptor binding, kappa (brain); set-up: species or system guinea pig
T1 construct: performed on fresh guinea pig brain homogenate; from tissue; host or cells: guinea pig whole brain without cerebellum, homogenate
T1 sequence (P41144 whole entry): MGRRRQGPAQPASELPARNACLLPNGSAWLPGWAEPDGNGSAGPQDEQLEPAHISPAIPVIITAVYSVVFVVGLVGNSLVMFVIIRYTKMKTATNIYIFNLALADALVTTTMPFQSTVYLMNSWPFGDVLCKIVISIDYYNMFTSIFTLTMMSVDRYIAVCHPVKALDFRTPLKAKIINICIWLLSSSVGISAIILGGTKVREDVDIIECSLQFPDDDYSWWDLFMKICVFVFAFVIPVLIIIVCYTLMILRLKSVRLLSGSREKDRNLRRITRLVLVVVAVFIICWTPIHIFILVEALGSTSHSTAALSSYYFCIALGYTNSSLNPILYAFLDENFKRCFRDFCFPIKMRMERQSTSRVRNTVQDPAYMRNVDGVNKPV
Description: (§1) Radio receptor binding to μ and K sites is performed on fresh guinea pig brain homogenate prepared according to Kosterlitz. (1981).
(§2) Whole brain without cerebellum is homogenized in 50 mM, Tris-buffer (pH 7.4 at 0° C.) and centrifuged at 49,000×g×10 min.
(§3) The pellet is then resuspended in the same buffer, incubated at 37° C. for 45 min. and centrifuged again.
(§4) 1.9 ml of the final homogenate (1:100 in Tris-pH 7.4, 0° C.) is used for the binding assay.
The binding to the K-sites is performed using ^3 H-Ethyl Ketocyclazocine, a non-selective benzomorphan compound which binds to μ, δ and K-sites, in the presence of 100nM of unlabelled DAGO and 100nM of the enkephalin analogue [DAla^2 -DLeu^5 ]Enkephalin (DADLE), to prevent μ and δ binding respectively. […]
(§5) The radioactivity bound to the filters is counted by liquid scintillation spectrophotometry.
(§6) The non-specific binding is determined in the presence of 500nM of the benzomorphan non-selective compound Mr 2266.
(§7) The equilibrium dissociation constant (KD) and the maximum binding capacity (Bmax) are determined from the analysis of saturation curves, while the inhibition constant (Ki) is determined from the analysis of competition experiments (Hill 1910; Scatchard 1949; Cheng and Prusoff 1973; Gillan et al. 1980) Published references are summarised as follows: […]

[4] = biological target: T2, Kappa opiate receptor (spinal cord) (Cavia porcellus, UniProt P41144); assay: Opiate receptor binding, kappa (spinal cord)
T2 construct: spinal cord kappa-receptors; from tissue
T2 sequence (P41144 whole entry): as above
Description: The binding to the K-sites is performed using ^3 H-Ethyl Ketocyclazocine, a non-selective benzomorphan compound which binds to μ, δ and K-sites, in the presence of 100nM of unlabelled DAGO and 100nM of the enkephalin analogue [DAla^2 -DLeu^5 ]Enkephalin (DADLE), to prevent μ and δ binding respectively.
Final homogenate with solutions of the cold ligand and of the labelled ligand is incubated for 40 min. at 25° C., filtered through Whatman GF/C glass filter discs and washed.
as §5, §6, §7

[5] = biological target: T3, Mu opiate receptor (brain) (Cavia porcellus, UniProt A0ACM8Q262); assay: Opiate receptor binding, mu (brain); set-up: species or system guinea pig; conditions: 3H-DAGO, 40 min, 25° C.
T3 construct: [3H]DAGO (DAMGO) displacement
T3 sequence (A0ACM8Q262 1-400): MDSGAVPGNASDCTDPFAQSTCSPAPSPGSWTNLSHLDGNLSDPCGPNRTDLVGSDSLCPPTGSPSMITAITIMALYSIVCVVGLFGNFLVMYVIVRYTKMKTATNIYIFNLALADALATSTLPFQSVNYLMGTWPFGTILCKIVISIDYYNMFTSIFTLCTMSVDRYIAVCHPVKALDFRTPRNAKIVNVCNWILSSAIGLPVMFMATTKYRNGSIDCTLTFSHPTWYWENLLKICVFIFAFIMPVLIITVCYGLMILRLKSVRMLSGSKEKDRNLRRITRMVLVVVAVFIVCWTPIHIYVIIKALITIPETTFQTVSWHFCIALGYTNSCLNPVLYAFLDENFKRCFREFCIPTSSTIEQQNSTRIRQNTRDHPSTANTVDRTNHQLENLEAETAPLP
Description: as §1, §2, §3, §4
^3 H [D-Ala^2, MePhe^4, Gly-ol^5 ] Enkephalin (^3 H-DAGO), an enkephalin analogue that binds selectively to μ receptor, is added to the biological substrate and incubated at 25° C. for 40 min., filtered through Whatman GF-C and washed with ice-cold Tris-buffer.
The filters are then dryed, solubilized in Filtercount and the radioactivity monitored. Non specific binding is determined in the presence of 10^-6 M Naloxone.
as §7

SMILES: O=C1CCCc2cc(CC(=O)N3CCCCC3CN3CCCC3)ccc21 (stereo not drawn) [Example 1, 1-[1-oxo-3,4,-dihydro-(2H)-naphth-6-yl]acetyl-2-(pyrrolidin-1-yl)methyl-piperidine hydrochloride]
- MOUSE TAIL-FLICK % Analgesia ([1]; dose 0.550 mg/kg): 50%
- ED50 [2]: 0.235 mg/kg
- Ki [3]: 0.0817 µM
- Ki [4]: 0.00524 µM
- Ki [5]: > 1 µM

SMILES: O=C1CCCc2cc(CC(=O)N3CCCC[C@H]3CN3CCCC3)ccc21 [Example 2, (2S)-1-[1-oxo-3,4,-dihydro-(2H)-naphth-6-yl]acetyl-2-(pyrrolidin-1-yl)methyl-piperidine hydrochloride]
- MOUSE TAIL-FLICK % Analgesia ([1]; dose 0.233 mg/kg): 50%
- ED50 [2]: 0.138 mg/kg
- Ki [3]: 0.049 µM
- Ki [4]: 0.00221 µM
- Ki [5]: 2.98 µM

SMILES: CC(=O)c1ccc(CC(=O)N2CCCC[C@H]2CN2CCCC2)cc1C [Example 4, (2S)-1-(3-methyl-4-acetylphenyl)acetyl-2-(pyrrolidin-1-yl)methyl-piperidinehydrochloride hydrate]
- MOUSE TAIL-FLICK % Analgesia ([1]; dose 8.6 mg/kg): 80%

SMILES: O=C1CCCc2ccc(CC(=O)N3CCCC[C@H]3CN3CCCC3)cc21 [Example 6, (2S)-1-[1-oxo-3,4-dihydro-(2H)-naphth-7-yl] acetyl-2-(pyrrolidin-1-yl)methyl-piperidine hydrochloride]
- MOUSE TAIL-FLICK % Analgesia ([1]; dose 10 mg/kg): 80%
